Read-outs that look alike come from different tables or passages of the source.
System: serum and liver lipid levels in rats
Assay: Serum and liver lipid levels and relative liver weight in rats (100 mg/kg, 10 days)
Assay type: in vivo, Male rats of the Wistar strain
Conditions: for response vs control in vivo at 100 mg/kg: Rattus norvegicus, po; for response vs control in vivo at 100 mg/kg / Relative liver weight, relative to Control (100): in parentheses, Control = (100); for Liver lipid levels Ch / Liver lipid levels PL / Liver lipid levels TG / Relative liver weight / Serum lipid levels Ch / Serum lipid levels PL / Serum lipid levels TG: 100 mg/kg p.o. 10 days, Mean ± S.E. (n = 9)
Description: (2) Male rats of the Wistar strain weighing 160-180 g were fed a stock deit (CE-2, Japan CLEA, Tokyo) and water ad libitum. The present compounds and KCD-232 were suspended, respectively, in a 0.5% of CMC solution and give orally to rats once a day at a dose of 100 mg/kg b.w. for 10 days.
Control rats were received the 0.5% CMC solution alone. The diet was withdrawn immediately after the last administration of compounds. Animals were sacrificed by decapitation 4 hr after the last administration and blood was collected, clotted and centrifuged to obtain serum. The liver was excised quickly and weighed. Total lipids were extracted from the serum and liver, and the levels of Ch, TG and PL were determined colorimetrically.

[1] = 240 h, Table 2, read-out: Liver lipid levels PL, relative to Control (100)
[2] = 240 h, Table 3, read-out: Liver lipid levels PL, relative to Control (100)
[3] = Table 2, read-out: Liver lipid levels Ch, relative to Control (100)
[4] = Table 2, read-out: Liver lipid levels TG, relative to Control (100)
[5] = Table 2, read-out: Serum lipid levels Ch, relative to Control (100)
[6] = Table 2, read-out: Serum lipid levels PL, relative to Control (100)
[7] = Table 2, read-out: Serum lipid levels TG, relative to Control (100)
[8] = Table 3, read-out: Liver lipid levels Ch, relative to Control (100)
[9] = Table 3, read-out: Liver lipid levels TG, relative to Control (100)
[10] = Table 3, read-out: Serum lipid levels Ch, relative to Control (100)
[11] = Table 3, read-out: Serum lipid levels PL, relative to Control (100)
[12] = Table 3, read-out: Serum lipid levels TG, relative to Control (100)

Structure (SMILES) | response vs control in vivo at 100 mg/kg [1] [%] | response vs control in vivo at 100 mg/kg [2] [%] | response vs control in vivo at 100 mg/kg [3] [%] | response vs control in vivo at 100 mg/kg [4] [%] | response vs control in vivo at 100 mg/kg [5] [%] | response vs control in vivo at 100 mg/kg [6] [%] | response vs control in vivo at 100 mg/kg [7] [%] | response vs control in vivo at 100 mg/kg [8] [%] | response vs control in vivo at 100 mg/kg [9] [%] | response vs control in vivo at 100 mg/kg [10] [%] | response vs control in vivo at 100 mg/kg [11] [%] | response vs control in vivo at 100 mg/kg [12] [%] | Liver lipid levels Ch (Table 2) [mg/g liver] | Liver lipid levels PL (Table 2) [mg/g liver] | Liver lipid levels TG (Table 2) [mg/g liver] | Relative liver weight (Table 2) [g/100 g b.w.] | Serum lipid levels Ch (Table 2) [mg/dL] | Serum lipid levels PL (Table 2) [mg/dL] | Serum lipid levels TG (Table 2) [mg/dL] | Relative liver weight, relative to Control (100) (Table 2) | other results
O=C(OCCCCc1ccc(OCc2ccc(Cl)cc2)cc1)c1cccnc1 [n1=1, n2=4, 4-[4-Chlorobenzyloxy)phenyl]butyl nicotinate] | 101 | 101 | 70.1 | 106 | 75.4 | 77 | 39.5 | 108 | 103 | 76 | 68.2 | 29.9 | 2.13 ± 0.04 | 38.4 ± 0.7 | 6.73 ± 0.51 | 4.44 ± 0.11 | 65.4 ± 1.4 | 114 ± 2.5 | 48.9 ± 5.1 | 115 | Liver lipid levels Ch (Table 3): 2.51 ± 0.11 mg/g liver; Liver lipid levels PL (Table 3): 36.7 ± 0.9 mg/g liver; Liver lipid levels TG (Table 3): 7.42 ± 0.88 mg/g liver; Relative liver weight (Table 3): 3.91 ± 0.10 g/100 g b.w.; Serum lipid levels Ch (Table 3): 74.2 ± 2.5 mg/dL; Serum lipid levels PL (Table 3): 106 ± 3.6 mg/dL; Serum lipid levels TG (Table 3): 37.6 ± 3 mg/dL; Relative liver weight, relative to Control (100) (Table 3): 103
O=C(OCCCCCCc1ccc(OCCCCCCc2ccc(Cl)cc2)cc1)c1cccnc1 [n1=6, n2=6, 6-{4-[6'-(4-Chlorophenyl)hexyloxy]phenyl}hexyl nicotinate] | – | 107 | – | – | – | – | – | 103 | 64.3 | 79.3 | 64.9 | 23.7 | – | – | – | – | – | – | – | – | Liver lipid levels Ch (Table 3): 2.38 ± 0.08 mg/g liver; Liver lipid levels PL (Table 3): 38.7 ± 0.8 mg/g liver; Liver lipid levels TG (Table 3): 4.62 ± 0.15 mg/g liver; Relative liver weight (Table 3): 3.84 ± 0.10 g/100 g b.w.; Serum lipid levels Ch (Table 3): 77.4 ± 3.8 mg/dL; Serum lipid levels PL (Table 3): 101 ± 3.7 mg/dL; Serum lipid levels TG (Table 3): 29.8 ± 1.5 mg/dL; Relative liver weight, relative to Control (100) (Table 3): 101
O=C(OCCc1ccc(OCCc2ccc(Cl)cc2)cc1)c1cccnc1 [n1=2, n2=2, 4-(4-Chorophenethyloxy)phenetyl nicotinate] | 107 | – | 79.3 | 84.2 | 78.8 | 78.2 | 39.1 | – | – | – | – | – | 2.41 ± 0.10 | 40.8 ± 0.3 | 5.32 ± 0.45 | 3.97 ± 0.05 | 68.3 ± 3.7 | 116 ± 5 | 48.4 ± 4.8 | 103 | –

Reference: patent publication US4556715A, “Nicotinic acid derivatives” (Kyorin Pharmaceutical Co., Ltd., priority 1980, dated 1985)
